Assay: Pharmacokinetics/biodistribution of [14C]-tagged doxorubicin and vectorized doxorubicin in plasma and organs after intravenous injection in mice;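 also: radioactivity counted in plasma and organs of mice killed 1 to 60 min post-dose, converted to percentage of product per organ, five animals per time point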
Conditions: i.v., 1 mg/kg doxorubicin equivalent, 14C radioactivity
Method: About 0.6-1 microcurie was injected per animal. The doxorubicin was tagged with carbon 14 (specific activity 55 mCi/mmol). After the indicated time periods (1, 5, 15, 30, 60 minutes), the mice were sacrificed. The organs (lungs, liver, brain, kidneys, etc.) and the plasma were then collected and counted. The quantity of radioactivity in each organ was then expressed as quantity of product per gram of organ. In this study, five mice were used for each time period.
After injection of the doxorubicin or the vectorized doxorubicin, we compared the pharmacokinetics/biodistribution of the products in the plasma and the different organs. The quantity of each product was expressed as percentage of product per organ.

Structure (SMILES): COc1cccc2c1C(=O)c1c(O)c3c(c(O)c1C2=O)C[C@@](O)(C(=O)CO)C[C@@H]3O[C@H]1C[C@H](N)[C@H](O)[C@H](C)O1 [compound 1, doxorubicin]
- Percentage of product in Brain after intravenous injection (time 1 minute): 0.06%
- Percentage of product in Heart after intravenous injection (time 1 minute): 0.58%
- Percentage of product in Kidneys after intravenous injection (time 1 minute): 3.37%
- Percentage of product in Liver after intravenous injection (time 1 minute): 17.81%
- Percentage of product in Lungs after intravenous injection (time 1 minute): 1.30%
- Percentage of product in Plasma after intravenous injection (time 1 minute): 1.84%
- Percentage of product in Brain after intravenous injection (time 5 minutes): 0.03%
- Percentage of product in Heart after intravenous injection (time 5 minutes): 0.52%
- Percentage of product in Kidneys after intravenous injection (time 5 minutes): 5.58%
- Percentage of product in Liver after intravenous injection (time 5 minutes): 23.02%
- Percentage of product in Lungs after intravenous injection (time 5 minutes): 1.24%
- Percentage of product in Plasma after intravenous injection (time 5 minutes): 0.53%
- Percentage of product in Brain after intravenous injection (time 15 minutes): 0.03%
- Percentage of product in Heart after intravenous injection (time 15 minutes): 0.54%
- Percentage of product in Kidneys after intravenous injection (time 15 minutes): 5.24%
- Percentage of product in Liver after intravenous injection (time 15 minutes): 20.22%
- Percentage of product in Lungs after intravenous injection (time 15 minutes): 1.14%
- Percentage of product in Plasma after intravenous injection (time 15 minutes): 0.34%
- Percentage of product in Brain after intravenous injection (time 30 minutes): 0.02%
- Percentage of product in Heart after intravenous injection (time 30 minutes): 0.45%
- Percentage of product in Kidneys after intravenous injection (time 30 minutes): 4.48%
- Percentage of product in Liver after intravenous injection (time 30 minutes): 19.70%
- Percentage of product in Lungs after intravenous injection (time 30 minutes): 1.03%
- Percentage of product in Plasma after intravenous injection (time 30 minutes): 0.19%
- Percentage of product in Brain after intravenous injection (time 60 minutes): 0.02%
- Percentage of product in Heart after intravenous injection (time 60 minutes): 0.36%
- Percentage of product in Kidneys after intravenous injection (time 60 minutes): 2.43%
- Percentage of product in Liver after intravenous injection (time 60 minutes): 17.80%
- Percentage of product in Lungs after intravenous injection (time 60 minutes): 0.85%
- Percentage of product in Plasma after intravenous injection (time 60 minutes): 0.18%
